For one molecule, Acidity and Solubility in water results are on record in patent publication US4565811A, “Sodium salt of ursodeoxycholic sulphate” (Istituto Biologico Chemioterapico "ABC" S.p.A., priority 1983, dated 1986).

The nature of this data set: Solubility in water / acidity. The class given is physicochemical.

Each structure is given as a SMILES string.

On to `CC(CCC(=O)O)C1CCC2C3C(OS(=O)(=O)O)CC4CC(OS(=O)(=O)O)CCC4(C)C3CCC12C` (stereo not drawn) [ursodeoxycholic O-sulphate], for which the Solubility in water result is reported as “very soluble in water”. The Acidity entry (free acid) is given as “very high acidity”. Moreover, the Solubility in water result (listed as ursosulphate acid) is “very soluble in water with acid reaction”.
